In assay [1] the target is T1, Dpa (Acinetobacter baumannii, UniProt V5VBK4).
T1 construct: gene ABR2091_2278; his-tagged Dpa from pKK223.3, expressed in E. coli DJ624 delta-ara; C-terminal beta-strand swapped dimer
As to the kind of experiment: X-ray crystal structure. Format: binding. Particulars: crystallised with 0.1 mM acetyl-CoA, pH 8.5.

Assay [2] deals with his-Dpa (A. baumannii diaminopropane acetyltransferase Dpa, wild type) (Acinetobacter baumannii). As to the kind of experiment: crystal structure; his-Dpa at 10 mg/ml crystallised with 0.1 mM acetyl-CoA; 0.2 M sodium acetate, 0.1 M Tris-HCl pH 8.5, 30% PEG 4000, 20 °C.
For assay [3] the target is unchanged. As to the kind of experiment: SEC; analytic SEC on Superdex75 increase, 50 mM Tris-HCl pH 8, 250 mM NaCl; 500 μL of 20 μM protein injected; where indicated pre-incubated with 5-fold molar excess of acCoA and/or 1,3-DAP. A general note: SEC sorts molecules by how far they enter the pores of the column.
For assay [4], the target named is T2, SpeG (Escherichia coli, UniProt P0A951).
T2 construct: his-tagged SpeG from pKK223.3, expressed in E. coli DJ624 delta-ara
T2 sequence (P0A951 2-186): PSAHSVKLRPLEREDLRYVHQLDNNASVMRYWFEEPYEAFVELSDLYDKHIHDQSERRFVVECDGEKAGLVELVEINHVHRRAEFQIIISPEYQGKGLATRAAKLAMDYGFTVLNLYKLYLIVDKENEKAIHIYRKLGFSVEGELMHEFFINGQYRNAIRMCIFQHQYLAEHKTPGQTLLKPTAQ
The experiment in a line: DTNB acetylation assay. The note with it: acetyl-CoA co-substrate 0.5 mM; substrate 5 mM; pH 8.0; 30 °C. Format: biochemical.

In assay [5] the target is his-Dpa_(Y128F) (catalytically impaired Dpa) (Acinetobacter baumannii). As to the kind of experiment: crystal structure.

Consider `CC(=O)SCCNC(=O)CCNC(=O)[C@H](O)C(C)(C)COP(=O)(O)OP(=O)(O)OC[C@H]1O[C@@H](n2cnc3c(N)ncnc32)[C@H](O)[C@@H]1OP(=O)(O)O` [acetyl-CoA], for which the X-ray crystal structure result in assay [1] is given as “we determined the structure of Dpa bound to acCoA”. Regarding “his-Dpa (A. baumannii diaminopropane acetyltransferase Dpa, wild type) (enzyme)”, the stoichiometry N in assay [2] and in assay [3] was 2 each time.

Consider `NCCCCNCCCN` [spermidine], for which, in assay [4], the DTNB acetylation assay result was “SpeG acetylated the long polyamines Spermine and Spermidine”. On the same count and under the same terms, the entry for `NCCCNCCCCNCCCN` [spermine] is “SpeG acetylated the long polyamines Spermine and Spermidine”. In turn, “his-Dpa_(Y128F) (catalytically impaired Dpa) (enzyme)” displayed a stoichiometry N in assay [5] of 2.

In general, stoichiometry N refers to the number of molecules, sites or subunits per partner or assembly.

For the origin of these results see publication PMC10267138, “A polyamine acetyltransferase regulates the motility and biofilm formation of Acinetobacter baumannii” (Nature Communications, 2023).
